Measurements: the NIST ThermoML archive (doi:10.1016/j.tca.2015.08.013)

Settings: for surface tension liquid-gas: Drop volume; for mass density / kinematic viscosity / speed of sound / vapor or sublimation pressure: Liquid; for mass density: Vibrating tube method; for kinematic viscosity / speed of sound: 101.33 kPa; for kinematic viscosity: Capillary tube (Ostwald / Ubbelohde) method; for speed of sound: Sing-around technique in a fixed-path interferometer; for vapor or sublimation pressure: Ebulliometric method (Recirculating still)

Cc1ccco1 [2-methylfuran]
Settings	kinematic viscosity [m2/s]	speed of sound [m/s]	surface tension liquid-gas [mN/m]	vapor or sublimation pressure [kPa]
278.15 K	5.39e-07	1254.8	27.02	–
280.65 K	5.23e-07	1243.4	26.6	–
283.15 K	5.08e-07	1231.9	26.29	–
285.37 K	–	–	–	12.57
285.65 K	4.93e-07	1220.4	26	–
286.86 K	–	–	–	13.65
288.15 K	4.79e-07	1209	25.69	–
289.1 K	–	–	–	15.22
290.65 K	4.66e-07	1197.5	25.26	–
291.81 K	–	–	–	17.26
293.15 K	4.55e-07	1186	24.98	–
293.4 K	–	–	–	18.52
294.3 K	–	–	–	19.48
295.65 K	4.46e-07	1174.6	24.66	–
295.86 K	–	–	–	20.63
297.45 K	–	–	–	22.34
298.15 K	4.38e-07	1163.2	24.34	–
299.76 K	–	–	–	24.68
300.65 K	4.29e-07	1151.9	24.03	–
300.83 K	–	–	–	25.8
303.15 K	4.2e-07	1140.6	23.71	–
303.45 K	–	–	–	28.68
305.13 K	–	–	–	30.8
305.65 K	4.11e-07	1129.3	23.41	–
307.42 K	–	–	–	33.94
308.15 K	4.01e-07	1118.1	23.06	–
308.17 K	–	–	–	35.04
310.12 K	–	–	–	37.92
310.65 K	3.92e-07	1106.8	22.71	–
312.06 K	–	–	–	41.03
313.15 K	3.83e-07	1095.6	22.37	–
314.02 K	–	–	–	44.3
315.65 K	3.74e-07	1084.4	22.08	–
316.08 K	–	–	–	47.94
317.22 K	–	–	–	50.08
318.15 K	3.66e-07	1073.3	21.69	–
319.29 K	–	–	–	54.16
320.65 K	3.58e-07	1062.1	21.35	–
321.15 K	–	–	–	58.19
323.05 K	–	–	–	62.23
323.15 K	3.5e-07	1051	21	–
325.57 K	–	–	–	68.18
325.65 K	3.42e-07	1039.9	20.7	–
327.23 K	–	–	–	72.31
328.15 K	3.36e-07	1028.8	20.46	–
329.07 K	–	–	–	77.17
330.65 K	3.28e-07	1017.7	20.08	–
331.13 K	–	–	–	82.86
333.15 K	3.2e-07	1006.7	19.74	–
333.27 K	–	–	–	89.15
334.25 K	–	–	–	92.22
335.65 K	3.13e-07	995.68	19.41	–
336.39 K	–	–	–	99.03
337.09 K	–	–	–	101.33
338.15 K	3.07e-07	984.65	19.09	–

Settings	mass density [kg/m3]
278.15 K, 99 kPa	934.034
280.65 K, 99 kPa	931.092
283.15 K, 99 kPa	928.13
283.15 K, 100 kPa	928.13
283.15 K, 2500 kPa	930.56
283.15 K, 5000 kPa	932.75
283.15 K, 7500 kPa	935.07
283.15 K, 10000 kPa	937.27
283.15 K, 20000 kPa	945.74
283.15 K, 30000 kPa	953.37
283.15 K, 40000 kPa	960.5
283.15 K, 50000 kPa	967.21
283.15 K, 60000 kPa	973.54
285.65 K, 99 kPa	925.161
288.15 K, 99 kPa	922.181
288.15 K, 100 kPa	922.18
288.15 K, 2500 kPa	924.54
288.15 K, 5000 kPa	926.97
288.15 K, 7500 kPa	929.48
288.15 K, 10000 kPa	931.62
288.15 K, 20000 kPa	940.4
288.15 K, 30000 kPa	948.28
288.15 K, 40000 kPa	955.59
288.15 K, 50000 kPa	962.35
288.15 K, 60000 kPa	968.84
290.65 K, 99 kPa	919.197
293.15 K, 99 kPa	916.198
293.15 K, 100 kPa	916.2
293.15 K, 2500 kPa	918.63
293.15 K, 5000 kPa	921.3
293.15 K, 7500 kPa	923.72
293.15 K, 10000 kPa	926.09
293.15 K, 20000 kPa	934.94
293.15 K, 30000 kPa	943.1
293.15 K, 40000 kPa	950.59
293.15 K, 50000 kPa	957.61
293.15 K, 60000 kPa	964.27
295.65 K, 99 kPa	913.193
298.15 K, 99 kPa	910.179
298.15 K, 100 kPa	910.18
298.15 K, 2500 kPa	912.71
298.15 K, 5000 kPa	915.3
298.15 K, 7500 kPa	918
298.15 K, 10000 kPa	920.32
298.15 K, 20000 kPa	929.72
298.15 K, 30000 kPa	937.91
298.15 K, 40000 kPa	945.67
298.15 K, 50000 kPa	952.89
298.15 K, 60000 kPa	959.58
300.65 K, 99 kPa	907.155
303.15 K, 99 kPa	904.121
303.15 K, 100 kPa	904.12
303.15 K, 2500 kPa	906.73
303.15 K, 5000 kPa	909.46
303.15 K, 7500 kPa	912.07
303.15 K, 10000 kPa	914.76
303.15 K, 20000 kPa	924.23
303.15 K, 30000 kPa	932.75
303.15 K, 40000 kPa	940.68
303.15 K, 50000 kPa	948.03
303.15 K, 60000 kPa	955.1
305.65 K, 99 kPa	901.077
308.15 K, 99 kPa	898.02
308.15 K, 100 kPa	898.02
308.15 K, 2500 kPa	900.91
308.15 K, 5000 kPa	903.72
308.15 K, 7500 kPa	906.43
308.15 K, 10000 kPa	909.05
308.15 K, 20000 kPa	918.85
308.15 K, 30000 kPa	927.65
308.15 K, 40000 kPa	935.68
308.15 K, 50000 kPa	943.2
308.15 K, 60000 kPa	950.35
310.65 K, 99 kPa	894.953
313.15 K, 99 kPa	891.871
313.15 K, 100 kPa	891.87
313.15 K, 2500 kPa	894.72
313.15 K, 5000 kPa	897.62
313.15 K, 7500 kPa	900.57
313.15 K, 10000 kPa	903.14
313.15 K, 20000 kPa	913.34
313.15 K, 30000 kPa	922.45
313.15 K, 40000 kPa	930.83
313.15 K, 50000 kPa	938.5
313.15 K, 60000 kPa	945.71
315.65 K, 99 kPa	888.779
318.15 K, 99 kPa	885.676
318.15 K, 100 kPa	885.68
318.15 K, 2500 kPa	888.8
318.15 K, 5000 kPa	891.79
318.15 K, 7500 kPa	894.77
318.15 K, 10000 kPa	897.58
318.15 K, 20000 kPa	907.94
318.15 K, 30000 kPa	917.27
318.15 K, 40000 kPa	925.75
318.15 K, 50000 kPa	933.61
318.15 K, 60000 kPa	941.15
320.65 K, 99 kPa	882.558
323.15 K, 99 kPa	879.425
323.15 K, 100 kPa	879.43
323.15 K, 2500 kPa	882.68
323.15 K, 5000 kPa	885.8
323.15 K, 7500 kPa	888.76
323.15 K, 10000 kPa	891.8
323.15 K, 20000 kPa	902.39
323.15 K, 30000 kPa	911.96
323.15 K, 40000 kPa	920.89
323.15 K, 50000 kPa	929.01
323.15 K, 60000 kPa	936.53
325.65 K, 99 kPa	876.278
328.15 K, 99 kPa	873.118
328.15 K, 100 kPa	873.12
328.15 K, 2500 kPa	876.29
328.15 K, 5000 kPa	879.75
328.15 K, 7500 kPa	882.71
328.15 K, 10000 kPa	885.92
328.15 K, 20000 kPa	896.99
328.15 K, 30000 kPa	906.92
328.15 K, 40000 kPa	915.88
328.15 K, 50000 kPa	924.13
328.15 K, 60000 kPa	931.92
330.65 K, 99 kPa	869.944
333.15 K, 99 kPa	866.753
333.15 K, 100 kPa	866.75
333.15 K, 2500 kPa	870.11
333.15 K, 5000 kPa	873.62
333.15 K, 7500 kPa	876.95
333.15 K, 10000 kPa	880.01
333.15 K, 20000 kPa	891.39
333.15 K, 30000 kPa	901.64
333.15 K, 40000 kPa	910.95
333.15 K, 50000 kPa	919.48
333.15 K, 60000 kPa	927.42
335.65 K, 99 kPa	863.547
338.15 K, 99 kPa	860.327
338.15 K, 100 kPa	860.33
338.15 K, 2500 kPa	863.95
338.15 K, 5000 kPa	867.36
338.15 K, 7500 kPa	870.91
338.15 K, 10000 kPa	874.16
338.15 K, 20000 kPa	886.03
338.15 K, 30000 kPa	896.44
338.15 K, 40000 kPa	905.99
338.15 K, 50000 kPa	914.74
338.15 K, 60000 kPa	922.79
